Measurements reported in publication PMC10590419, “Structural and mechanistic insights into the inhibition of respiratory syncytial virus polymerase by a non-nucleoside inhibitor” (Communications Biology, 2023).
Like-named read-outs stand apart in the source and are kept apart here.

Molecular target: recombinant RSV L+P (Human respiratory syncytial virus A, UniProt P28887)
Experiment: Primed single nucleotide incorporation (SNI) gel assay, recombinant RSV L+P
Format: biochemical, Human RSV (strain A2)
Description: RNA polymerase reaction samples consisted of 0.2 μM recombinant RSV L-P polymerase, 0.2 μM of an RNA template (Le11 or Tr14), and 400 μM of a short primer (sequences as indicated in the figures), mixed in a buffer containing 50 mM Tris pH 7.4, 2 mM dithiothreitol and 6 mM MgCl2. For the assay in Fig. 1d, reactions were started by adding 100 nM [α-^32P]GTP (3000 Ci/mmol) tracer and incubated at 30 °C for 10 min. […] Reactions were stopped by adding an equal volume of gel loading buffer containing 90% formamide, 50 mM EDTA, 0.05% Xylene Cyanol, and Bromophenol Blue. Samples were denatured at 95 °C for 5 min and run on a 22.5% polyacrylamide urea sequencing gel at 80 W. The gel was transferred onto a Whatman cellulose chromatography paper (Millipore Sigma) and dried on a gel dryer (Bio-Rad) for 1 h. The dried gel was exposed to a phosphor-screen, scanned on a Typhoon phosphorimager (GE Healthcare), and quantified using ImageQuant (GE Healthcare).

[1] = 5 µM, le-11, +1 site, replicates, 5 µM
[2] = 5 µM, le-11, +3 site, replicates, 5 µM
[3] = 5 µM, tr-14, +1 site, replicates, 5 µM
[4] = le-11, +1 site, 0.00390625 uM, replicates, 0.00390625 µM
[5] = le-11, +1 site, 0.0078125 uM, replicates, 0.0078125 µM
[6] = le-11, +1 site, 0.015625 uM, replicates, 0.015625 µM
[7] = le-11, +1 site, 0.03125 uM, replicates, 0.03125 µM
[8] = le-11, +1 site, 0.0625 uM, replicates, 0.0625 µM
[9] = le-11, +1 site, 0.125 uM, replicates, 0.125 µM
[10] = le-11, +1 site, 0.25 uM, replicates, 0.25 µM
[11] = le-11, +1 site, 0.5 uM, replicates, 0.5 µM

recombinant RSV L+P, sequence (P28887 whole entry): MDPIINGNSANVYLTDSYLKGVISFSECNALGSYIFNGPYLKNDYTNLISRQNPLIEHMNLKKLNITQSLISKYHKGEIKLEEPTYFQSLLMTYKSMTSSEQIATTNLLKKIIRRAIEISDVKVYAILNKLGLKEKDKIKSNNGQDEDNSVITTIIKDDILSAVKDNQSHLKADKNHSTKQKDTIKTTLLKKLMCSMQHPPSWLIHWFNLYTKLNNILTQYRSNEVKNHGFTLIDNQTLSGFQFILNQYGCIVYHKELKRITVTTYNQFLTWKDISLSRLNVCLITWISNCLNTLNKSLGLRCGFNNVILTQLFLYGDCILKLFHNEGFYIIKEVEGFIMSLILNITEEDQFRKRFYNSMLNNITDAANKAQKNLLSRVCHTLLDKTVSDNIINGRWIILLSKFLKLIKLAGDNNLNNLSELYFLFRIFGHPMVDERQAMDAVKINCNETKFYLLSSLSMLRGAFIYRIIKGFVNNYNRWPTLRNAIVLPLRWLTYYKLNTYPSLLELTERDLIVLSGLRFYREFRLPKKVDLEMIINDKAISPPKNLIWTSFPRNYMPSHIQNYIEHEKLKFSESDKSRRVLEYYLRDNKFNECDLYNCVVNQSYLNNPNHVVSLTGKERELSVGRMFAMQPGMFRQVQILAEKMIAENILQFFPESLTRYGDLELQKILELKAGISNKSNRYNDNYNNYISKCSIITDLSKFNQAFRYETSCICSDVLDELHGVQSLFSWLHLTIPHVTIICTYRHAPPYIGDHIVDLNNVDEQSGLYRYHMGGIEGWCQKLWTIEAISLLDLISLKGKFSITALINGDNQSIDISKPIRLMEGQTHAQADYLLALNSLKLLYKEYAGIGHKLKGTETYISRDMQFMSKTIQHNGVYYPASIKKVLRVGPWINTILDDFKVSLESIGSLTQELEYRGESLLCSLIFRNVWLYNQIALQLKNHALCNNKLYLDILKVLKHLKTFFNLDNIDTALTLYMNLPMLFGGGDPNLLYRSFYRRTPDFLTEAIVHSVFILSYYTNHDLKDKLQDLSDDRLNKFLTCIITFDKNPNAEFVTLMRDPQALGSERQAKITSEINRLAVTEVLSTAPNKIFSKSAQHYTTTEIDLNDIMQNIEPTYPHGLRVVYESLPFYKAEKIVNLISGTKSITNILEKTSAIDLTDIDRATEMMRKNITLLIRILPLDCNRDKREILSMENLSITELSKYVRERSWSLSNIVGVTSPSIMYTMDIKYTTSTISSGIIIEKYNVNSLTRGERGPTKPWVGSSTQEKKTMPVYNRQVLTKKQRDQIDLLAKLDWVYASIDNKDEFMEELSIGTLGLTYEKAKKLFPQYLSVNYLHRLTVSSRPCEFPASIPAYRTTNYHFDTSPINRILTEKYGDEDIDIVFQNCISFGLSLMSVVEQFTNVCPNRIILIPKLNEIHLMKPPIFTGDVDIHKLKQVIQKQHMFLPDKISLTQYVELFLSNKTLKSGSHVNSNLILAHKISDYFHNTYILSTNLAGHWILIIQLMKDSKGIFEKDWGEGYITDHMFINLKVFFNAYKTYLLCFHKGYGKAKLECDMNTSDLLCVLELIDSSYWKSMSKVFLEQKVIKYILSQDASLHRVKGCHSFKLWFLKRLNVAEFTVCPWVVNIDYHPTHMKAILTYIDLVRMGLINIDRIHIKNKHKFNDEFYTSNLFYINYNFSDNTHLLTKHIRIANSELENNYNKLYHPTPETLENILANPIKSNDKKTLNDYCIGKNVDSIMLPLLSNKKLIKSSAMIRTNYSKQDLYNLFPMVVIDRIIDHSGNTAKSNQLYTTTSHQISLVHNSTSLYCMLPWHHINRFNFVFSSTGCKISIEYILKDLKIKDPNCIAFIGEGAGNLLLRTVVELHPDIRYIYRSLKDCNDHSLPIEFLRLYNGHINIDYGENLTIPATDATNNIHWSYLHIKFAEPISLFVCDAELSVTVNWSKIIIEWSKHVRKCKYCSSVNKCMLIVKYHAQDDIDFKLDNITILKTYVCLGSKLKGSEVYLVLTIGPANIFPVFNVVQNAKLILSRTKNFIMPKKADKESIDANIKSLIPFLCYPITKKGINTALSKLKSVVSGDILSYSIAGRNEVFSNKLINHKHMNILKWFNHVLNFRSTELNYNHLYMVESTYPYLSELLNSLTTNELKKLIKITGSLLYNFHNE
recombinant RSV L+P, sequence (P03421 whole entry, further chain): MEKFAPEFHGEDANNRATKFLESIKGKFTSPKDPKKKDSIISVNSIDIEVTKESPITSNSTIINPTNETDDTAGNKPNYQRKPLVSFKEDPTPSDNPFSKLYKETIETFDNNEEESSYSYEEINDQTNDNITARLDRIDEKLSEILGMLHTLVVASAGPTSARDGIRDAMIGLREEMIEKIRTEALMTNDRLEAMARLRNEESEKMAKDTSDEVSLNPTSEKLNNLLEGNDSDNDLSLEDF

COc1cc(C(=O)NC[C@](O)(c2cc(C(C)(C)O)c(F)c(-c3ccc(F)cc3)n2)C(F)(F)F)cc2cc(C)nnc12 [JNJ-8003]
inhibition at 5 µM (5 µM, le-11, +1 site, N 2, read-out: % inhibition of SNI, AC>ACG, average): 88.8%
inhibition at 5 µM (5 µM, le-11, +1 site, N 2, read-out: % inhibition of SNI, ACG>ACGC, average): 2.75%
inhibition at 5 µM (5 µM, le-11, +1 site, N 2, read-out: % inhibition of SNI, ACGC>ACGCG, average): 94.8%
inhibition at 5 µM (5 µM, le-11, +1 site, N 2, read-out: % inhibition of SNI, ACGCG>ACGCGA, average): 96.9%
inhibition at 5 µM (5 µM, le-11, +1 site, N 2, read-out: % inhibition of SNI, ACGCGA>ACGCGAA, average): 85.3%
% inhibition of SNI, AC>ACG [1]: 88.48%
% inhibition of SNI, ACGC>ACGCG [1]: 96.78%
% inhibition of SNI, ACGCG>ACGCGA [1]: 98.45%
% inhibition of SNI, ACGCGA>ACGCGAA [1]: 88.02%
inhibition at 5 µM (5 µM, le-11, +1 site, replicates, read-out: % inhibition of SNI, AC>ACG): 89%
inhibition at 5 µM (5 µM, le-11, +1 site, replicates, read-out: % inhibition of SNI, ACGC>ACGCG): 92.7%
inhibition at 5 µM (5 µM, le-11, +1 site, replicates, read-out: % inhibition of SNI, ACGCG>ACGCGA): 95.4%
inhibition at 5 µM (5 µM, le-11, +1 site, replicates, read-out: % inhibition of SNI, ACGCGA>ACGCGAA): 82.6%
inhibition at 5 µM (5 µM, le-11, +3 site, N 2, read-out: % inhibition of SNI, GC>GCG, average): 96.5%
inhibition at 5 µM (5 µM, le-11, +3 site, N 2, read-out: % inhibition of SNI, GCG>GCGA, average): 74.8%
inhibition at 5 µM (5 µM, le-11, +3 site, N 2, read-out: % inhibition of SNI, GCGA>GCGAA, average): 97.6%
inhibition at 5 µM (5 µM, le-11, +3 site, N 2, read-out: % inhibition of SNI, GCGAA>GCGAAA, average): 93.8%
% inhibition of SNI, GC>GCG [2]: 97.71%
% inhibition of SNI, GCG>GCGA [2]: 79.85%
% inhibition of SNI, GCGA>GCGAA [2]: 98.25%
% inhibition of SNI, GCGAA>GCGAAA [2]: 91.04%
inhibition at 5 µM (5 µM, le-11, +3 site, replicates, read-out: % inhibition of SNI, GC>GCG): 95.3%
inhibition at 5 µM (5 µM, le-11, +3 site, replicates, read-out: % inhibition of SNI, GCG>GCGA): 69.8%
inhibition at 5 µM (5 µM, le-11, +3 site, replicates, read-out: % inhibition of SNI, GCGA>GCGAA): 97%
inhibition at 5 µM (5 µM, le-11, +3 site, replicates, read-out: % inhibition of SNI, GCGAA>GCGAAA): 96.5%
inhibition at 5 µM (5 µM, tr-14, +1 site, N 2, read-out: % inhibition of SNI, AC>ACG, average): 88.2%
inhibition at 5 µM (5 µM, tr-14, +1 site, N 2, read-out: % inhibition of SNI, ACG>ACGA, average): 8.03%
inhibition at 5 µM (5 µM, tr-14, +1 site, N 2, read-out: % inhibition of SNI, ACGA>ACGAG, average): 95%
inhibition at 5 µM (5 µM, tr-14, +1 site, N 2, read-out: % inhibition of SNI, ACGAG>ACGAGA, average): 88.8%
inhibition at 5 µM (5 µM, tr-14, +1 site, N 2, read-out: % inhibition of SNI, ACGAGA>ACGAGAA, average): 90%
% inhibition of SNI, AC>ACG [3]: 84.25%
% inhibition of SNI, ACGA>ACGAG [3]: 93.02%
% inhibition of SNI, ACGAG>ACGAGA [3]: 89.36%
% inhibition of SNI, ACGAGA>ACGAGAA [3]: 89.66%
inhibition at 5 µM (5 µM, tr-14, +1 site, replicates, read-out: % inhibition of SNI, AC>ACG): 92.2%
inhibition at 5 µM (5 µM, tr-14, +1 site, replicates, read-out: % inhibition of SNI, ACGA>ACGAG): 96.9%
inhibition at 5 µM (5 µM, tr-14, +1 site, replicates, read-out: % inhibition of SNI, ACGAG>ACGAGA): 88.2%
inhibition at 5 µM (5 µM, tr-14, +1 site, replicates, read-out: % inhibition of SNI, ACGAGA>ACGAGAA): 90.3%
SNI to the 3-mer primer from the +1 site (in words) (le and tr promoter RNA): did not inhibit
pACG formation, % inhibition [4]: 21.7616%
pACGCG formation, % inhibition [4]: 22.5312%
inhibition at 0.00390625 µM (le-11, +1 site, 0.00390625 uM, replicates, read-out: pACG formation, % inhibition): 15.7%
inhibition at 0.00390625 µM (le-11, +1 site, 0.00390625 uM, replicates, read-out: pACGC formation, % inhibition): 22.3%
inhibition at 0.00390625 µM (le-11, +1 site, 0.00390625 uM, replicates, read-out: pACGCG formation, % inhibition): 29.7%
pACG formation, % inhibition [5]: 22.0299%
pACGCG formation, % inhibition [5]: 31.4378%
inhibition at 0.0078125 µM (le-11, +1 site, 0.0078125 uM, replicates, read-out: pACG formation, % inhibition): 27.9%
inhibition at 0.0078125 µM (le-11, +1 site, 0.0078125 uM, replicates, read-out: pACGC formation, % inhibition): 23.6%
inhibition at 0.0078125 µM (le-11, +1 site, 0.0078125 uM, replicates, read-out: pACGCG formation, % inhibition): 35.9%
pACG formation, % inhibition [6]: 38.1202%
pACGCG formation, % inhibition [6]: 40.5036%
inhibition at 0.015625 µM (le-11, +1 site, 0.015625 uM, replicates, read-out: pACG formation, % inhibition): 38.1%
inhibition at 0.015625 µM (le-11, +1 site, 0.015625 uM, replicates, read-out: pACGC formation, % inhibition): 28%
inhibition at 0.015625 µM (le-11, +1 site, 0.015625 uM, replicates, read-out: pACGCG formation, % inhibition): 35%
pACG formation, % inhibition [7]: 56.5591%
pACGCG formation, % inhibition [7]: 63.5179%
inhibition at 0.03125 µM (le-11, +1 site, 0.03125 uM, replicates, read-out: pACG formation, % inhibition): 61.9%
inhibition at 0.03125 µM (le-11, +1 site, 0.03125 uM, replicates, read-out: pACGC formation, % inhibition): 28.5%
inhibition at 0.03125 µM (le-11, +1 site, 0.03125 uM, replicates, read-out: pACGCG formation, % inhibition): 63.6%
pACG formation, % inhibition [8]: 90.7902%
pACGCG formation, % inhibition [8]: 93.3045%
inhibition at 0.0625 µM (le-11, +1 site, 0.0625 uM, replicates, read-out: pACG formation, % inhibition): 93.3%
inhibition at 0.0625 µM (le-11, +1 site, 0.0625 uM, replicates, read-out: pACGC formation, % inhibition): 29.3%
inhibition at 0.0625 µM (le-11, +1 site, 0.0625 uM, replicates, read-out: pACGCG formation, % inhibition): 92.5%
pACG formation, % inhibition [9]: 92.6859%
pACGCG formation, % inhibition [9]: 94.8621%
inhibition at 0.125 µM (le-11, +1 site, 0.125 uM, replicates, read-out: pACG formation, % inhibition): 94.3%
inhibition at 0.125 µM (le-11, +1 site, 0.125 uM, replicates, read-out: pACGC formation, % inhibition): 30.8%
inhibition at 0.125 µM (le-11, +1 site, 0.125 uM, replicates, read-out: pACGCG formation, % inhibition): 94.8%
pACG formation, % inhibition [10]: 91.0112%
pACGCG formation, % inhibition [10]: 93.3897%
inhibition at 0.25 µM (le-11, +1 site, 0.25 uM, replicates, read-out: pACG formation, % inhibition): 94.2%
inhibition at 0.25 µM (le-11, +1 site, 0.25 uM, replicates, read-out: pACGC formation, % inhibition): 17.7%
inhibition at 0.25 µM (le-11, +1 site, 0.25 uM, replicates, read-out: pACGCG formation, % inhibition): 95.2%
pACG formation, % inhibition [11]: 89.7151%
pACGCG formation, % inhibition [11]: 94.5159%
